In publication PMC11879098, “Phycocyanobilin Binding and Specific Amino Acid Residues Near The Chromophore Contribute To Orange Light Perception By The Dualchrome Phytochrome Region” (Plant and Cell Physiology, 2024):

What was measured:
AtPhyB = target: T1, AtPhyB (Arabidopsis thaliana, UniProt P14713); assay: co-expression with SyHO1 and ΔN_PpPcyA in E. coli, UV-vis absorption, Zn fluorescence, acid denaturation; type: binding; details: covalent; pH 7.5
T1 construct: gene PHYB; His-tagged, E. coli C41, band about 70 kDa, so a truncated photosensory region
T1 sequence (P14713 1-624 limits assumed): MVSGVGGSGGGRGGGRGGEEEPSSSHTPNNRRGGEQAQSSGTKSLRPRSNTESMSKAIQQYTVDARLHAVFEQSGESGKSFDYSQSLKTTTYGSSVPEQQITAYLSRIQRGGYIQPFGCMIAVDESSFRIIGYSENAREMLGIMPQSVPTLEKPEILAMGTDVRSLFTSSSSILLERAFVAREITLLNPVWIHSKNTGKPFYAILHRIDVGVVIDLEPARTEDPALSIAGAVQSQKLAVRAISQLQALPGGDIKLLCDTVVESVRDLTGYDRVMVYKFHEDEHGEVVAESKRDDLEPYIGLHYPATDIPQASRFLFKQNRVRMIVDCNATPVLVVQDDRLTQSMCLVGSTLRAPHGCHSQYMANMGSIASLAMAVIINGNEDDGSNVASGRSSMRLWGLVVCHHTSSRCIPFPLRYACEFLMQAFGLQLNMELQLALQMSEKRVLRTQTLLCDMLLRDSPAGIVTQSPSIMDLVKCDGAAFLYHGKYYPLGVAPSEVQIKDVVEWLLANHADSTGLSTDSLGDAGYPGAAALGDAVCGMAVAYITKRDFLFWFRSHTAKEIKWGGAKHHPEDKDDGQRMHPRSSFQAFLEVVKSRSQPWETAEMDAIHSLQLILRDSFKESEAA

[1] = target: T2, PpDUC1-N (dualchrome 1 phytochrome region) (Pycnococcus provasolii, UniProt A0A830HT85); assay: expression in PΦB-producing E. coli, UV-vis absorption; type: binding; details: covalent; difference spectrum; possibly data of Makita et al. 2021 shown again
T2 construct: gene PPROV_000692100; N-terminal phytochrome region (includes GAF and PHY domains) of the phytochrome-cryptochrome fusion; His-tagged, E. coli C41, about 75 kDa
T2 sequence (A0A830HT85 entry or part of it): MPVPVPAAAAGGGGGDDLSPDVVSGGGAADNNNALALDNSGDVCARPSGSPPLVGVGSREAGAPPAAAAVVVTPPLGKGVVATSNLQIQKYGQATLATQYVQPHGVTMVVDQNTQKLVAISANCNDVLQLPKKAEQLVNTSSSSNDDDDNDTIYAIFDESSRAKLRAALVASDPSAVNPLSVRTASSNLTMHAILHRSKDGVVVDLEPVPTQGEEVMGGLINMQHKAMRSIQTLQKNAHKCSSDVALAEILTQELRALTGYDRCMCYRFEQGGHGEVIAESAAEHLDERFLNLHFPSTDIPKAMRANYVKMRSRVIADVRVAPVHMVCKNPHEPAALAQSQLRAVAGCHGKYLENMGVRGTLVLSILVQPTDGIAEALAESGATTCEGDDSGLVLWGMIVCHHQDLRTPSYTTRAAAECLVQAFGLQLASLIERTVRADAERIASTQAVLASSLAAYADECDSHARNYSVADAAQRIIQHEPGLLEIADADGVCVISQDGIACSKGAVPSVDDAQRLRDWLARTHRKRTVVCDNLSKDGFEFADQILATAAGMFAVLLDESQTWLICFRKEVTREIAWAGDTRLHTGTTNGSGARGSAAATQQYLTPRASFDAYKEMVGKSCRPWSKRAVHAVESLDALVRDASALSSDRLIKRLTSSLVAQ

CC=C1C(=Cc2[nH]c(C=C3N=C(C=C4NC(=O)C(CC)=C4C)C(C)=C3CCC(=O)O)c(CCC(=O)O)c2C)NC(=O)C1C (centres unmarked) [PCB]
co-expression with SyHO1 and ΔN_PpPcyA in E. coli, UV-vis absorption, Zn fluores (AtPhyB): difference spectrum of AtPhyB coexpressed with ΔN_PpPcyA was nearly identical to that of PCB-binding AtPhyB

C=CC1=C(C)C(=CC2=NC(=Cc3[nH]c(C=C4NC(=O)C(C)C4=CC)c(C)c3CCC(=O)O)C(CCC(=O)O)=C2C)NC1=O (centres unmarked) [PΦB]
expression in PΦB-producing E. coli, UV-vis absorption [1]: difference spectrum of PpDUC1-N purified from PCB-producing and PΦB-producing E. coli
